The source of these data is the METLIN SMRT retention time set (Domingo-Almenara et al. 2019).

This data set is described as follows: gradient 5% acetonitrile 3 min, to 50% in 2 min, to 85% in 15 min, held 3 min, 100 µL/min. To be noted: column: Zorbax Extend-C18 2.1 x 50 mm; eluents: water / acetonitrile, 0.1% formic acid. The essentials: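 Values are retention times taken from adduct peaks that software picked and an analyst inspected. The pure standards were run as mixtures of ~100 molecules on HPLC linked to a quadrupole time-of-flight mass spectrometer, in positive and negative ionization mode. A Zorbax Extend-C18 column (2.1 × 50 mm, 1.8 μm) was used at 100 μL/min with water and acetonitrile, each including 0.1% formic acid.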
In turn, `Cc1cc(-c2nnc(C3CC3)o2)c(C)n1CC(=O)NCc1ccccc1Cl` had an RP-LC retention time of 769 s.
The value for `CCS(=O)(=O)N1CC(=O)N(c2cc(Cl)ccc2C)C(C)(C(=O)NC2CCCCC2)C1` (centres undefined) was 955 s.
With `Cc1noc(C2CCCCN2Cc2nc(-c3ccccn3)no2)n1` (centres undefined) the figure was 639 s.
`COc1ccc(C(CC(=O)N2CCN(C)CC2)N2Cc3ccccc3C2=O)cc1OC` (centres undefined): the RP-LC retention time is 609 s.
With `CCOc1ccccc1C(=O)NCC(c1ccc(N(C)C)cc1)N(C)C` (centres undefined) the figure was 572 s.
With `Cc1cc(C)cc(NC(=O)Nc2ccc3nnc(C)n3c2)c1` the figure was 661 s; with `O=C(Cc1ccccc1Cl)N1CCc2nc[nH]c2C1`, 584 s.
The value for `Cc1ccccc1N1CCn2c1nc1c2c(=O)n(CC(=O)O)c(=O)n1C` was 664 s; that for `COc1ccc(OC)c(NC(=O)Nc2cccc(-c3nccnc3N3CCCC3)c2)c1` was 916 s.
In turn, `CCc1ccc2oc(C(=O)NCC(c3ccc(OC)cc3)N(C)C)cc(=O)c2c1` (centres undefined) registered an RP-LC retention time of 656 s.
The value for `C=CCNC(=O)c1cn(-c2cc(-c3nc(C)no3)ccn2)cn1` was 711 s; that for `Cc1ccc(-n2nc(CO)c(C(=O)NC(C)C)n2)cc1C` was 983 s.
The value for `COc1ccccc1NC(=O)Cn1cccc1-c1nnc(-c2ccccc2)o1` was 1020 s; that for `COCCN1CCC2(CC1)CN(Cc1cc(Cl)ccc1F)Cc1ccccc1O2` was 778 s; that for `CNC(=O)NCCc1c[nH]c2ncccc12` was 512 s.
On to `O=C(c1cnccn1)N1[C@H]2CC[C@@H]1c1cnc(-c3ccc(F)cc3)nc1C2`, for which the RP-LC retention time came out at 810 s.
The molecule `CCNC(=O)c1cc(C)nc2c(C)cccc12` registered an RP-LC retention time of 568 s.
With `Cn1cc(C(CNS(=O)(=O)c2cnc[nH]2)c2cccnc2)c2ccccc21` (centres undefined) the figure was 590 s; with `CCN1CCn2cc(S(=O)(=O)Nc3ccc(Cl)cc3)cc2C1=O`, 766 s.
The value for `COC(=O)c1cc2nc(-c3ccc(F)cc3)cc(C)n2n1` was 866 s.
Molecule `CCCNC(=O)C1CCCN(c2ccc(SCC(=O)Nc3cc(C)ccc3C)nn2)C1` (centres undefined) gave an RP-LC retention time of 656 s.
In the case of `CCC1Oc2ccc(S(=O)(=O)N3CCC(C(=O)Nc4ccc(C)cc4Cl)CC3)cc2NC1=O` (centres undefined), the RP-LC retention time came to 971 s.
With `Cc1nc(N2CCN(c3ccccn3)CC2)nc2c1C(=O)CC(c1ccc(F)cc1)C2` (centres undefined) the figure was 755 s.
The value for `CCn1ccc2sc(C)c(C(=O)NCCOC)c2c1=O` was 610 s; that for `Clc1ccc(OCc2nc(-c3cccnc3)n[nH]2)cc1` was 634 s.
The value for `CCOC(=O)N1CCC2(CC1)N=C(c1ccc(Cl)cc1)CC(c1cccc(OCC)c1O)N2` (centres undefined) was 871 s; that for `CCOc1ccccc1NC(=O)CC1Sc2ccccc2NC1=O` (centres undefined) was 829 s; that for `Cc1ccc(C(=O)CC2(O)C(=O)Nc3ccc(Cl)cc32)cc1C` (centres undefined) was 772 s.
As for `Cc1cc2c(=O)n(CC(=O)NCc3ccc(F)cc3)c3cccnc3n2n1`, the RP-LC retention time is 693 s.
The value for `Cc1ccc(C)c(CNC(=O)c2ccc3c(c2)nc2n3CCN(C(C)C)C2=O)c1` was 769 s; that for `COc1ccc(-n2nc(C)c3sc(N4CCCC(C(=O)NCC5CCCO5)C4)nc32)cc1` (centres undefined) was 895 s; that for `Cc1ccc2nc3c(c(C(=O)NC(C)C)c2c1)CCCC3` was 618 s.
With `CC1CCCCC1NC(=O)C1(C)Cn2c(cc3occc32)C(=O)N1Cc1cccnc1` (centres undefined) the figure was 659 s; with `O=S(=O)(NCc1ccco1)c1ccc(Cl)c(-c2nnc(-c3ccccc3)o2)c1`, 980 s.
With `O=C(Nc1cccnc1)C1CCc2nc(N3CCCCC3)ncc2C1` (centres undefined) the figure was 583 s; with `COc1ccc(-c2noc(Cn3ccn4nc(-c5ccccc5)cc4c3=O)n2)cc1`, 1030 s; with `CC(C)C(=O)Nc1ccc(CCc2nc3ccc(C(=O)NCc4ccco4)cc3[nH]2)cc1`, 635 s.
`O=C(Nc1ccccn1)C1CCN(S(=O)(=O)c2cc(-c3noc(C4CCC4)n3)cs2)CC1`: the RP-LC retention time was 893 s.
With `Cc1ccc(F)cc1NC(=O)Cn1nc2cc(-c3ccccc3)nc(C)n2c1=O` the figure was 972 s.
With `CN(C)CCn1ccc2ccn(CC(=O)NCc3ccccc3)c(=O)c21` the figure was 606 s; with `CCOc1cc(=O)n2c(c1C(=O)OCc1ccc(Cl)cc1)CCCCC2`, 991 s; with `COC(=O)c1ccc(CSc2nnc(NC(=O)c3cc(C)on3)s2)o1`, 737 s.
In the case of `O=C(NCCc1c[nH]c2ccccc12)c1cc(-c2ccccn2)nc2ccccc12`, the RP-LC retention time is 868 s.
As for `Oc1cc2c(cc1O)C(c1ccccc1)CNCC2` (centres undefined), the RP-LC retention time came out at 585 s.
The value for `CCCn1cc(CCNC(=O)c2ccc(Br)cc2)c2cccnc21` was 832 s.
With `COc1ccccc1N1CCN(C(=O)CN2C(=O)NC(c3ccc(Cl)cc3)C3=C2COC3=O)CC1` (centres undefined) the figure was 770 s.
With `Cn1cnc2cc(CNC(=O)c3cccc(Cl)c3)ccc21`, the RP-LC retention time was determined as 631 s.
The value for `COc1ccccc1NC(=O)Cn1cccc(-c2nc(-c3ccc(Br)cc3)no2)c1=O` was 1000 s.
`O=C(CCc1c(-c2ccccc2)nc2ccccn12)Nc1ccccc1Br` yielded an RP-LC retention time of 683 s.
With `COC(=O)c1cc(S(=O)(=O)N2CCCC2C(=O)Nc2cc(F)ccc2F)cn1C` (centres undefined) the figure was 911 s.
With `COc1ccc2c(=O)c(C(=O)c3ccncc3)cn(CC(=O)NC3CCCCC3)c2c1` the figure was 655 s; with `COc1cc(-c2nc3ncccn3c2NC2CCCCCC2)cc(OC)c1OC`, 790 s.
With `O=C(NC1CCc2ccccc21)C1CCN(c2ncccc2-c2nc(-c3ccccc3)no2)CC1` (centres undefined) the figure was 1120 s; with `CC(C)NC(=O)c1ccc(-c2nc3cc(NS(=O)(=O)Cc4ccccc4F)ccc3n2C)cc1`, 677 s; with `Cc1ccc(NC(=O)C2CCN(S(=O)(=O)c3cn(C)cn3)CC2)cc1`, 701 s.
On to `Cc1ccc(C)c(-c2cc3c(=O)n(Cc4nc(-c5ccc(Cl)cc5)no4)ncn3n2)c1`, for which the RP-LC retention time is 1220 s.
With `O=C(Nc1nc(-c2cccnc2)cs1)c1csc(-n2cccc2)n1` the figure was 667 s.
The value for `COc1ccc(-c2csc(C(=O)n3nc(C)cc3C)c2-n2cccc2)cc1` was 1300 s; that for `CCN1C[C@]2(COC)CC[C@H](OC)[C@]34C5C[C@@H]6[C@@H](OC)C[C@@]7(OCOC7(C13)[C@@H](O)C24)C5[C@H]6OC` (some centres undefined) was 614 s; that for `Cc1ccc(NC(=O)CN2C(=O)CCc3cc(S(=O)(=O)N4CCCCC4C)ccc32)cc1` (centres undefined) was 797 s.
With `COc1ccc(C(=O)CC2(O)C(=O)Nc3c(C)cccc32)cc1OC` (centres undefined) the figure was 688 s; with `CN1C(=O)c2cccnc2Sc2cc(NC(=O)c3cccc(Br)c3)ccc21`, 876 s; with `COCCC1(N(C)C)CCN(C(=O)CC2CCCCC2)CC1`, 621 s.
In turn, `CSc1ccc(Cl)c(C(=O)Nc2cccn3c(C4CCC4)nnc23)c1` returned an RP-LC retention time of 911 s.
With `Cc1ccnc(NC(=O)C2CCN(S(=O)(=O)c3cc(-c4noc(C5CC5)n4)ccc3C)CC2)c1` the figure was 811 s; with `CC(NC(=O)CCCN1C(=O)CCn2nc(-c3cn(C)c4ccccc34)cc21)c1ccccc1` (centres undefined), 791 s; with `CC(C)OCCCNC(=O)CN1C(=O)CCn2nc(-c3cn(C)c4ccccc34)cc21`, 738 s.
With `CCC(C)NC(=O)c1cc(COc2ccc(NC(=O)CC(C)C)cc2)on1` (centres undefined) the figure was 871 s; with `COc1ccc(NS(=O)(=O)c2ccc(-c3c(C)noc3C)cc2)cc1Cl`, 945 s; with `Cc1cc(C(=O)NC(C)CCc2ccccc2)n(-c2ccccc2)n1` (centres undefined), 942 s.
`O=C(NCCN1CCCCC1)C1CCN(c2cnn(Cc3ccccc3)c(=O)c2)CC1` gave an RP-LC retention time of 614 s.
The value for `COC(=O)c1ccc(-c2nc3cnccn3c2Nc2ccccc2OC)cc1` was 893 s; that for `Cc1cc(Cl)ccc1NC(=O)C1CCCN(c2nnc(C)c3c(C)n(-c4ccccc4)nc23)C1` (centres undefined) was 803 s.
`CC(C)CCNC(=O)C1(C)CN(S(=O)(=O)c2ccccc2)CC(=O)N1c1cccc(Cl)c1` (centres undefined) had an RP-LC retention time of 1020 s.
`CCOC(=O)c1c(S(=O)(=O)N2CCC(C(=O)Nc3ccc(C(C)C)cc3)CC2)c(C)n(C)c1C` showed an RP-LC retention time of 1020 s.
The molecule `COc1cc(OC)c(NC(=O)Cn2c(=O)n(-c3ccc(C)cc3)c(=O)c3c2cc(C)n3C)cc1Cl` had an RP-LC retention time of 904 s.
`CC(NC(=O)c1cc(-c2ccc(F)cc2)cn1C)c1cccnc1` (centres undefined) came in with an RP-LC retention time of 680 s.
The value for `CCC(=O)NCc1nc2c(n1CC)CN(S(=O)(=O)c1cc(C)ccc1C)CC2` was 590 s; that for `CC(C)Cn1ccc2c(cc(C(=O)Nc3cc(F)ccc3F)n2C)c1=O` was 876 s.
